Experimental data as given in the supplement of paper PMC10307832.

How the values were obtained:
Test in all cases: relative viability (nuclei count vs DMSO), 5 days (fraction); higher = more cells survive
[1] = compound: C(C(=O)C(=O)O)Br [Bromopyruvate] + CC1(C)CCC(c2ccc(Cl)cc2)=C(CN2CCN(c3ccc(C(=O)NS(=O)(=O)c4ccc(N[C@H](CCN5CCOCC5)CSc5ccccc5)c(S(=O)(=O)C(F)(F)F)c4)cc3)CC2)C1 [Navitoclax] (partner 0.5 µM)
How it was run: (§1)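 Values are medians from duplicate plates. Each reflects relative viability, defined as the nuclei count of treated wells over that of vehicle wells. Lung cancer cell lines in 1536-well plates were pin-tool dosed one day after seeding with one drug alone or with a fixed anchor-drug dose plus five library-drug doses (not always all listed) in √10 steps, then fixed, stained and imaged at 4× after 5 days.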

[2] = compound: C(C(=O)C(=O)O)Br [Bromopyruvate] + CC(C)C[C@H](NC(=O)[C@H](Cc1ccccc1)NC(=O)c1cnccn1)B(O)O [Bortezomib] (partner 0.002 µM)
How it was run: as §1

[3] = compound: C(C(=O)C(=O)O)Br [Bromopyruvate] + Nc1nc2[nH]cc(CCc3ccc(C(=O)N[C@@H](CCC(=O)O)C(=O)O)cc3)c2c(=O)[nH]1 [Pemetrexed] (partner 0.2 µM)
How it was run: as §1

[4] = compound: CC(O)(CS(=O)(=O)c1ccc(F)cc1)C(=O)Nc1ccc(C#N)c(C(F)(F)F)c1 [Bicalutamide] + N=C(N)NC(=N)NCCc1ccccc1 [Phenformin] (partner 250 µM)
How it was run: as §1

| Cell Line | relative viability ([1]; first compound 1 µM) | relative viability ([1]; first compound 3.162 µM) | relative viability ([1]; first compound 10 µM) | relative viability ([1]; first compound 31.62 µM) | relative viability ([1]; first compound 100 µM) | relative viability ([2]; first compound 1 µM) | relative viability ([2]; first compound 3.162 µM) | relative viability ([2]; first compound 10 µM) | relative viability ([2]; first compound 31.62 µM) | relative viability ([2]; first compound 100 µM) | relative viability ([3]; first compound 1 µM) | relative viability ([3]; first compound 3.162 µM) | relative viability ([3]; first compound 10 µM) | relative viability ([3]; first compound 31.62 µM) | relative viability ([3]; first compound 100 µM) | relative viability ([4]; first compound 0.08 µM) | relative viability ([4]; first compound 0.253 µM) | relative viability ([4]; first compound 0.8 µM) | relative viability ([4]; first compound 2.53 µM) |
| --- | --- | --- | --- | --- | --- | --- | --- | --- | --- | --- | --- | --- | --- | --- | --- | --- | --- | --- | --- |
| EBC-1 | 0.448 | 0.528 | 0.433 | 0.453 | 0.358 | 0.527 | 0.67 | 0.56 | 0.574 | 0.511 | – | – | – | – | – | – | – | – | – |
| EKVX | 0.887 | 0.995 | 1.06 | 0.95 | 1.07 | 1.08 | 0.993 | 1.12 | 1.11 | 1.1 | 0.396 | 0.424 | 0.376 | 0.372 | 0.438 | 0.246 | 0.223 | 0.233 | 0.24 |
| EMC-BAC-2 | 1.02 | 1.17 | 1.31 | 1.15 | 1.25 | 0.99 | 1.14 | 1.2 | 1.02 | 1.12 | 0.422 | 0.45 | 0.451 | 0.479 | 0.453 | 0.541 | 0.554 | 0.609 | 0.46 |
| EPLC-272H | 1.15 | 1.22 | 1.01 | 1.2 | 1.34 | 0.844 | 0.952 | 1.03 | 0.862 | 1.08 | 0.367 | 0.259 | 0.334 | 0.251 | 0.432 | 0.34 | 0.274 | 0.311 | 0.315 |
| H3255 | 0.575 | 0.603 | 0.512 | 0.504 | 0.512 | 0.877 | 0.723 | 0.981 | 0.719 | 0.892 | 0.558 | 0.535 | 0.573 | 0.536 | 0.597 | 0.42 | 0.337 | – | 0.352 |
| HARA | 1.12 | 1.16 | 1.13 | 1.17 | 1.14 | 1.11 | 1.13 | 1.13 | 1.17 | 1.15 | 0.275 | 0.232 | – | 0.219 | 0.271 | 0.516 | 0.388 | 0.595 | 0.481 |
| HCC-15 | 0.697 | 0.723 | 0.759 | 0.765 | 0.657 | 0.98 | 1.03 | 1.03 | 0.99 | 0.973 | 0.241 | 0.231 | 0.227 | 0.229 | 0.234 | 0.513 | 0.418 | 0.6 | 0.484 |
| HCC-44 | 0.907 | 0.967 | 1.08 | 0.96 | 1.04 | 0.914 | 0.897 | 0.872 | 0.918 | 0.962 | 0.621 | 0.591 | 0.555 | 0.616 | 0.638 | 0.302 | 0.177 | 0.292 | 0.184 |
| HCC-78 | 0.386 | 0.759 | 0.977 | 0.893 | 0.886 | 0.282 | 0.615 | 0.569 | 0.563 | 0.495 | 0.938 | 0.92 | 0.95 | 0.895 | 0.95 | 0.776 | 0.557 | 0.796 | 0.668 |
